Experimental findings from patent publication US7973055B2, “Crystalline forms of a biphenyl compound” (Theravance, Inc., priority 2006, dated 2011) are described below.

Data set [1] in a line: Dynamic moisture sorption (DMS) assessment. The format is physicochemical. The settings on record: for weight gain when exposed to up to 90% relative humidity / level of hygroscopicity: DMS; for weight gain when exposed to up to 90% relative humidity: up to 90% RH; for deliquescence: exposed to up to 90% relative humidity. The method, then:
A dynamic moisture sorption (DMS) assessment (also known as a moisture sorption-desorption profile) was performed for samples of a crystalline hemiedisylate (prepared as described in Example 2) and a heminapadisylate (prepared as described in Example 5) salt using a VTI atmospheric microbalance, SGA-100 system (VTI Corp., Hialeah, Fla. 33016). A sample size of approximately 10 mg was used and the humidity was set at the ambient value at the start of the analysis. A typical DMS analysis consisted of three scans: ambient to 2% relative humidity (RH), 2% RH to 90% RH, 90% RH to 5% RH at a scan rate of 5% RH/step. The mass was measured every two minutes and the RH was changed stepwise to the next value (+/−5% RH) when the mass of the sample was stable to within 0.02% for 5 consecutive points.

The conditions of data set [2]: 5° C./min. On the procedure:
Differential scanning calorimetry (DSC) was performed using a TA Instruments Model Q-10 module with a Thermal Analyst controller. Data were collected and analyzed using TA Instruments Thermal Solutions software. A sample of about 1 mg was accurately weighed into an aluminum pan with lid. The sample was evaluated using a linear heating ramp of 5° C./min from ambient temperature to approximately 300° C. The DSC cell was purged with dry nitrogen during use.

Data set [3] is described as follows: Solid state stability assessment (HPLC). The settings on record: about 1 month at 40° C. and 75% RH. On the procedure:
These stock solutions were diluted to 1 mg/mL in 10% ACN for injection onto the HPLC.

For data set [4] the following is noted: 0.2 mg/mL freebase equivalents in 10 mM citrate buffered normal saline, pH 4.5; one month at 40° C./75% RH. On the procedure:
A solution was prepared with 0.2 mg/mL freebase equivalents (using a crystalline heminapadisylate salt prepared as described in Example 5) in 10 mM citrate buffered normal saline, pH 4.5. Less than 0.5% degradation was observed after storage for one month at 40° C./75% RH.

Counter-ions that a name gives are not always drawn.

`CN(CCN1CCC(OC(=O)Nc2ccccc2-c2ccccc2)CC1)C(=O)c1cccc(C(=O)NCCNCc2ccc(O)cc2)c1` [crystalline diacetate salt]: the “weight gain when exposed to up to 90% relative humidity” value (shortened to “weight gain … to 90% relative humidity”) in data set [1] was “less than 18%”.

In the case of `CN(CCN1CCC(OC(=O)Nc2ccccc2-c2ccccc2)CC1)C(=O)c1cccc(C(=O)NCCNCc2ccc(O)cc2)c1` [crystalline dipropionate salt], the “weight gain … to 90% relative humidity” value in data set [1] is recorded as “less than 11%”.

Consider `CN(CCN1CCC(OC(=O)Nc2ccccc2-c2ccccc2)CC1)C(=O)c1cccc(C(=O)NCCNCc2ccc(O)cc2)c1` [crystalline freebase (Form I), Crystalline Freebase Biphenyl-2-ylcarbamic Acid 1-[2-({3-[2-(4-Hydroxybenzylamino)ethylcarbamoyl]benzoyl}methylamino)ethyl]piperidin-4-yl Ester (Form I)], for which, in data set [2], the “no thermal decomposition below (DSC trace)” value was not below 95 °C.

In the case of `CN(CCN1CCC(OC(=O)Nc2ccccc2-c2ccccc2)CC1)C(=O)c1cccc(C(=O)NCCNCc2ccc(O)cc2)c1` [crystalline freebase (Form II), Crystalline Freebase Biphenyl-2-ylcarbamic Acid 1-[2-({3-[2-(4-Hydroxybenzylamino)ethylcarbamoyl]benzoyl}methylamino)ethyl]piperidin-4-yl Ester (Form II)], the “no thermal decomposition below (DSC trace)” value in data set [2] was not below 110 °C.

Turning to `CN(CCN1CCC(OC(=O)Nc2ccccc2-c2ccccc2)CC1)C(=O)c1cccc(C(=O)NCCNCc2ccc(O)cc2)c1.CN(CCN1CCC(OC(=O)Nc2ccccc2-c2ccccc2)CC1)C(=O)c1cccc(C(=O)NCCNCc2ccc(O)cc2)c1.O=S(=O)(O)CCS(=O)(=O)O` [crystalline hemiedisylate salt, Crystalline Hemiedisylate Salt of Biphenyl-2-ylcarbamic Acid 1-[2-({3-[2-(4-Hydroxybenzylamino)ethylcarbamoyl]benzoyl}methylamino)ethyl]piperidin-4-yl Ester], in data set [1], the level of hygroscopicity result is “moderate and low”; the “weight gain … to 90% relative humidity” value is “less than 4%”; the deliquescence result is recorded as “not deliquescent”. In addition, in data set [2], the “no thermal decomposition below (DSC trace)” value was not below 190 °C.

Turning to `CN(CCN1CCC(OC(=O)Nc2ccccc2-c2ccccc2)CC1)C(=O)c1cccc(C(=O)NCCNCc2ccc(O)cc2)c1.CN(CCN1CCC(OC(=O)Nc2ccccc2-c2ccccc2)CC1)C(=O)c1cccc(C(=O)NCCNCc2ccc(O)cc2)c1.O=S(=O)(O)c1cccc2c(S(=O)(=O)O)cccc12` [crystalline heminapadisylate salt, Crystalline Heminapadisylate Salt of Biphenyl-2-ylcarbamic Acid 1-[2-({3-[2-(4-Hydroxybenzylamino)ethylcarbamoyl]benzoyl}methylamino)ethyl]piperidin-4-yl Ester], the “weight gain in the humidity range of 40-75% RH” value in data set [1] (40-75% RH) was found to be 0.46%. In data set [1], the level of hygroscopicity entry is given as “low”, the “weight gain … to 90% relative humidity” value is listed as “less than 2%” and the deliquescence entry is recorded as “not deliquescent”. For the same molecule, in data set [3], the “chemical degradation by HPLC after storage” value is “less than 0.5%”. In data set [4], the “degradation of inhalation solution after storage” value is listed as “Less than 0.5%”. Also, the “no thermal decomposition below (DSC trace)” value in data set [2] is not below 220 °C.

`CN(CCN1CCC(OC(=O)Nc2ccccc2-c2ccccc2)CC1)C(=O)c1cccc(C(=O)NCCNCc2ccc(O)cc2)c1` [crystalline monooxalate salt]: the “weight gain … to 90% relative humidity” value in data set [1] is “less than 14%”.
